Laboratory results from PubChem BioAssay (NCI).
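These data come from cells grown in 96-well plates and exposed to compound for 48 hours at five concentrations. GI50 is the concentration that inhibits growth by half. The concentration for full growth arrest is given as TGI.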

Experiments:
Test in all cases: growth of human tumour cells (NCI), 48 h
[1] = system: 786-0 renal
[2] = system: A498 renal
[3] = system: A549 NSCLC
[4] = system: ACHN renal
[5] = system: BT-549 breast
[6] = system: CAKI-1 renal
[7] = system: CCRF-CEM leukemia
[8] = system: COLO 205 colon
[9] = system: DU-145 prostate
[10] = system: EKVX NSCLC
[11] = system: HCC-2998 colon
[12] = system: HCT-116 colon
[13] = system: HCT-15 colon
[14] = system: HL-60(TB) leukemia
[15] = system: HOP-62 NSCLC
[16] = system: HOP-92 NSCLC
[17] = system: HS 578T breast
[18] = system: HT29 colon
[19] = system: IGROV1 ovarian
[20] = system: K-562 leukemia
[21] = system: KM12 colon
[22] = system: LOX IMVI melanoma
[23] = system: M14 melanoma
[24] = system: MALME-3M melanoma
[25] = system: MCF7 breast
[26] = system: MDA-MB-231 breast
[27] = system: MDA-MB-435
[28] = system: MOLT-4 leukemia
[29] = system: NCI-H226 lung
[30] = system: NCI-H23 lung
[31] = system: NCI-H460 lung
[32] = system: NCI-H522 lung
[33] = system: NCI/ADR-RES ovarian
[34] = system: OVCAR-3 ovarian
[35] = system: OVCAR-4 ovarian
[36] = system: OVCAR-5 ovarian
[37] = system: OVCAR-8 ovarian
[38] = system: PC-3 prostate
[39] = system: RPMI-8226 leukemia
[40] = system: RXF 393 renal
[41] = system: SF-268 CNS
[42] = system: SF-295 CNS
[43] = system: SF-539 CNS
[44] = system: SK-MEL-2 melanoma
[45] = system: SK-MEL-28 melanoma
[46] = system: SK-MEL-5 melanoma
[47] = system: SK-OV-3 ovarian
[48] = system: SN12C renal
[49] = system: SNB-19 CNS
[50] = system: SNB-75 CNS
[51] = system: SR leukemia
[52] = system: SW-620 colon
[53] = system: T-47D breast
[54] = system: TK-10 renal
[55] = system: U251 CNS
[56] = system: UACC-257 melanoma
[57] = system: UACC-62 melanoma
[58] = system: UO-31 renal

Cc1ccc(C(=O)NC2CC2)cc1-c1ccc2[nH]ncc2c1
GI50 [1]: > 25000 nM | TGI [1]: > 25 µM | GI50 [2]: > 12700 nM | TGI [2]: > 25 µM | GI50 [3]: > 25 µM | TGI [3]: > 25 µM | GI50 [4]: > 25000 nM | TGI [4]: > 25 µM | GI50 [5]: > 25 µM | TGI [5]: > 25 µM | GI50 [6]: > 25000 nM | TGI [6]: > 25 µM | GI50 [7]: > 25000 nM | TGI [7]: > 25 µM | GI50 [8]: > 25000 nM | TGI [8]: > 25 µM | GI50 [9]: > 25 µM | TGI [9]: > 25 µM | GI50 [10]: > 25 µM | TGI [10]: > 25 µM | GI50 [11]: > 25 µM | TGI [11]: > 25 µM | GI50 [12]: > 25000 nM | TGI [12]: > 25 µM | GI50 [13]: > 25000 nM | TGI [13]: > 25 µM | GI50 [14]: > 25000 nM | TGI [14]: > 25 µM | GI50 [15]: > 25000 nM | TGI [15]: > 25 µM | GI50 [16]: 6.22 µM | TGI [16]: > 25 µM | GI50 [17]: > 19.5 µM | TGI [17]: > 25 µM | GI50 [18]: > 25 µM | TGI [18]: > 25 µM | GI50 [19]: > 25 µM | TGI [19]: > 25 µM | GI50 [20]: > 22000 nM | TGI [20]: > 25 µM | GI50 [21]: > 25000 nM | TGI [21]: > 25 µM | GI50 [22]: > 25000 nM | TGI [22]: > 25000 nM | GI50 [23]: > 25000 nM | TGI [23]: > 25 µM | GI50 [24]: > 25000 nM | TGI [24]: > 25 µM | GI50 [25]: > 25000 nM | TGI [25]: > 25 µM | GI50 [26]: > 25 µM | TGI [26]: > 25 µM | GI50 [27]: > 25000 nM | TGI [27]: > 25 µM | GI50 [28]: > 25 µM | TGI [28]: > 25 µM | GI50 [29]: > 25000 nM | TGI [29]: > 25 µM | GI50 [30]: > 25 µM | TGI [30]: > 25 µM | GI50 [31]: > 25000 nM | TGI [31]: > 25 µM | GI50 [32]: > 25000 nM | TGI [32]: > 25 µM | GI50 [33]: > 25 µM | TGI [33]: > 25 µM | GI50 [34]: > 25000 nM | TGI [34]: > 25 µM | GI50 [35]: > 25 µM | TGI [35]: > 25 µM | GI50 [36]: > 25 µM | TGI [36]: > 25 µM | GI50 [37]: > 25 µM | TGI [37]: > 25 µM | GI50 [38]: > 25 µM | TGI [38]: > 25 µM | GI50 [39]: > 25000 nM | TGI [39]: > 25 µM | GI50 [40]: > 25000 nM | TGI [40]: > 25 µM | GI50 [41]: > 25 µM | TGI [41]: > 25 µM | GI50 [42]: > 25 µM | TGI [42]: > 25 µM | GI50 [43]: > 25000 nM | TGI [43]: > 25 µM | GI50 [44]: > 25000 nM | TGI [44]: > 25 µM | GI50 [45]: > 25000 nM | TGI [45]: > 25 µM | GI50 [46]: > 25 µM | TGI [46]: > 25 µM | GI50 [47]: > 25 µM | TGI [47]: > 25 µM | GI50 [48]: > 25000 nM | TGI [48]: > 25 µM | GI50 [49]: > 25 µM | TGI [49]: > 25 µM | GI50 [50]: > 13 µM | TGI [50]: > 25 µM | GI50 [51]: > 25000 nM | TGI [51]: > 25 µM | GI50 [52]: > 25000 nM | TGI [52]: > 25 µM | GI50 [53]: > 25000 nM | TGI [53]: > 25 µM | GI50 [54]: > 25000 nM | TGI [54]: > 25 µM | GI50 [55]: > 25 µM | TGI [55]: > 25 µM | GI50 [56]: > 25000 nM | TGI [56]: > 25 µM | GI50 [57]: > 25000 nM | TGI [57]: > 25 µM | GI50 [58]: > 22900 nM | TGI [58]: > 25 µM

CC/C(=C/c1ccc(OC)cc1OC)[N+](=O)[O-]
GI50 [1]: 1770 nM | TGI [1]: 3.29 µM | GI50 [2]: 2750 nM | TGI [2]: 10.2 µM | GI50 [3]: 8.37 µM | TGI [3]: 23.4 µM | GI50 [4]: 2140 nM | TGI [4]: 4.63 µM | GI50 [5]: 4.15 µM | TGI [5]: 15.3 µM | GI50 [6]: 2240 nM | TGI [6]: 6.55 µM | GI50 [7]: 2050 nM | TGI [7]: 7.01 µM | GI50 [8]: 2040 nM | TGI [8]: 4.24 µM | GI50 [9]: 3.61 µM | TGI [9]: 13.8 µM | GI50 [10]: 15.4 µM | TGI [10]: 28.9 µM | GI50 [11]: 4.32 µM | TGI [11]: 15.8 µM | GI50 [12]: 1650 nM | TGI [12]: 3.23 µM | GI50 [13]: 1870 nM | TGI [13]: 4.54 µM | GI50 [14]: 2600 nM | TGI [14]: 7.93 µM | GI50 [15]: 2380 nM | TGI [15]: 7.14 µM | GI50 [16]: 4.27 µM | TGI [16]: 14.3 µM | GI50 [17]: 7.76 µM | TGI [17]: 63.4 µM | GI50 [18]: 3.37 µM | TGI [18]: 11.1 µM | GI50 [19]: 3.4 µM | TGI [19]: 11.5 µM | GI50 [20]: 2910 nM | TGI [20]: 61.5 µM | GI50 [21]: 2410 nM | TGI [21]: 6.75 µM | GI50 [22]: 1310 nM | TGI [22]: 2900 nM | GI50 [23]: 2440 nM | TGI [23]: 8.53 µM | GI50 [24]: 1910 nM | TGI [24]: 4.93 µM | GI50 [25]: 852 nM | TGI [25]: 3.92 µM | GI50 [26]: 3.08 µM | TGI [26]: 8.96 µM | GI50 [27]: 1970 nM | TGI [27]: 5.7 µM | GI50 [28]: 3.73 µM | TGI [28]: 35.6 µM | GI50 [29]: 2280 nM | TGI [29]: 4.73 µM | GI50 [30]: 4.51 µM | TGI [30]: 20.1 µM | GI50 [31]: 2710 nM | TGI [31]: 7.56 µM | GI50 [32]: 1790 nM | TGI [32]: 3.58 µM | GI50 [33]: 3.17 µM | TGI [33]: 12.6 µM | GI50 [34]: 1840 nM | TGI [34]: 3.38 µM | GI50 [35]: 4.66 µM | TGI [35]: 17.3 µM | GI50 [36]: 7.59 µM | TGI [36]: 22.2 µM | GI50 [37]: 3.5 µM | TGI [37]: 11.6 µM | GI50 [38]: 3.84 µM | TGI [38]: 13.1 µM | GI50 [39]: 2310 nM | TGI [39]: 7.19 µM | GI50 [40]: 1880 nM | TGI [40]: 3.57 µM | GI50 [41]: 3.28 µM | TGI [41]: 12.7 µM | GI50 [42]: 9.88 µM | TGI [42]: 21.7 µM | GI50 [43]: 2270 nM | TGI [43]: 4.73 µM | GI50 [44]: 2640 nM | TGI [44]: 8.73 µM | GI50 [45]: 2510 nM | TGI [45]: 6.51 µM | GI50 [46]: 4.12 µM | TGI [46]: 14 µM | GI50 [47]: 16.7 µM | TGI [47]: 30.4 µM | GI50 [48]: 2310 nM | TGI [48]: 6.61 µM | GI50 [49]: 4.35 µM | TGI [49]: 16.6 µM | GI50 [50]: 3.28 µM | TGI [50]: 16.6 µM | GI50 [51]: 2610 nM | TGI [51]: 17 µM | GI50 [52]: 2280 nM | TGI [52]: 4.93 µM | GI50 [53]: 1720 nM | TGI [53]: 5.06 µM | GI50 [54]: 2620 nM | TGI [54]: 6.5 µM | GI50 [55]: 4.93 µM | TGI [55]: 16.2 µM | GI50 [56]: 2310 nM | TGI [56]: 6.29 µM | GI50 [57]: 1730 nM | TGI [57]: 3.96 µM | GI50 [58]: 1570 nM | TGI [58]: 3.09 µM
